Values quoted from earlier work as cited in patent publication EP2136625B1, “USE OF A MEANS FOR THE SI[…] WEEDS, ALGAE, PHYTOPATHOGENIC BACTERIA, FUNGI, VIRUSES AND VIROIDS” (priority 2007, dated 2008).

Details: Methode EPA-FIFRA, Sonnenbarsch, 46 d

For `CCCCCCCCCC[N+](C)(C)CCCCCCCCCC.[Cl-]` [DDAC, Didecyldimethylammoniumchlorid], the BCF is listed as 81.
